# In patent US10189809B2, “SGC stimulators” (Ironwood Pharmaceuticals, Inc., priority 2010, dated 2019):
# Like-named read-outs stand apart in the source and are kept apart here.
# Tests used:
# [1] = target: T1, soluble guanylate cyclase (sGC) (Homo sapiens (Human), UniProt Q02108+Q02153); test: sGC-HEK-cGMP assay run in the absence of SNP (HEK WC assay); type: cell-based; conditions: compound at 30 μM, absence of SNP
# Summary of the method: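 Intracellular cGMP was measured by LC/MS, using a standard curve, in HEK293 cells treated with compound for 10 min at 37° C after a 15 min 0.5 mM IBMX pretreatment, with no SNP present. Lysis and quench used 0.1 M HCl. EC50 values came from concentration-response fits.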
# [2] = target: T1, soluble guanylate cyclase (sGC); test: sGC-HEK-cGMP assay run with SNP incubation (HEK WC assay); type: cell-based; conditions: for HEK WC Assay (fold increase at 30 μM in the presence of 10 μM SNP): compound at 30 μM; for EC50: in the presence of 10 uM SNP
# Summary of the method: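 EC50 values derive from concentration-response curves of intracellular cGMP in HEK293 cells, which express sGC endogenously. Compound and sodium nitroprusside were co-incubated 10 min at 37 °C after a 15-min 0.5 mM IBMX step, with 0.1 M HCl lysis and 1% DMSO vehicle.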
# [3] = read-out: HEK WC Assay (% Emax at 1 μM with 10 uM SNP)
# [4] = read-out: HEK WC Assay (% Emax at 10 μM with 10 uM SNP)
# [5] = read-out: HEK WC Assay (% Emax at 30 μM with 10 uM SNP)
# T1 sequence (Q02153 whole entry): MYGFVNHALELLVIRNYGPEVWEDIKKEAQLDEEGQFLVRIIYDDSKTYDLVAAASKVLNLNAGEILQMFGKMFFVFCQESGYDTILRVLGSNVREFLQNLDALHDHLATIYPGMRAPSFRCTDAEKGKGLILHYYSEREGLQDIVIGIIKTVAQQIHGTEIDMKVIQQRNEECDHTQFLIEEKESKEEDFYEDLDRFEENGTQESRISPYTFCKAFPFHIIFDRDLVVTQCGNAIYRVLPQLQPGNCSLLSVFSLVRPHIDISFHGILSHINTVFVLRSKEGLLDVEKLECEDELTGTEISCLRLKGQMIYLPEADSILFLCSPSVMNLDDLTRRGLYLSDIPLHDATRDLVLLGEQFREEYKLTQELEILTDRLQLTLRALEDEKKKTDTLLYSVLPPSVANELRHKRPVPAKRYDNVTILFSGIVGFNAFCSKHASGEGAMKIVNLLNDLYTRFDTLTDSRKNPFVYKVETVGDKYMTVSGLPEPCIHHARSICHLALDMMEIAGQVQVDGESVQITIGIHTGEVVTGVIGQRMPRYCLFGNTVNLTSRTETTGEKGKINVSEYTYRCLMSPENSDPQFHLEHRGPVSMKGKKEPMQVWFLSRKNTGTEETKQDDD
# T1 sequence (Q02108 whole entry): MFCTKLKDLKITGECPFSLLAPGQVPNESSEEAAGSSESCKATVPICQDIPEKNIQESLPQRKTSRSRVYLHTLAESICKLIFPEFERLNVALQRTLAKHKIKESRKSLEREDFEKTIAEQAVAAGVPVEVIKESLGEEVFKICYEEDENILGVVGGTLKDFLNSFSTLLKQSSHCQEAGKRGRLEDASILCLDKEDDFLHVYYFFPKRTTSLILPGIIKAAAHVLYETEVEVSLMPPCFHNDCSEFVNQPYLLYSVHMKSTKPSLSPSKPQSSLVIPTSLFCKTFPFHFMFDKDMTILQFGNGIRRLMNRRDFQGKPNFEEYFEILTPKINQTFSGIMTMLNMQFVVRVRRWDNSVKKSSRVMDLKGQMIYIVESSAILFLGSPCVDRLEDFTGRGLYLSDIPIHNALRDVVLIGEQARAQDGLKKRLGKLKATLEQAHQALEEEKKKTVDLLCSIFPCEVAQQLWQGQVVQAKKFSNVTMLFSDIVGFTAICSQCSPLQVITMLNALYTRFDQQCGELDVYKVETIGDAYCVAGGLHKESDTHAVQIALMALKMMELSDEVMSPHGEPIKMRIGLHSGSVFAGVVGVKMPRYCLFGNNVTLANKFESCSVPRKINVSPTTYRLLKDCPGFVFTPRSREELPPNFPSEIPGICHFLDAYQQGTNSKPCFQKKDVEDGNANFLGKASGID
SMILES,HEK WC Assay (fold increase at 30 μM in the absence of SNP) [1],HEK WC Assay (fold increase at 30 μM in the presence of 10 μM SNP) [2],EC50 [2] [µM],"Emax [2, 3] [%]","Emax [2, 4] [%]","Emax [2, 5] [%]"
Nc1nc(-c2cc(-c3ccon3)n(Cc3ccccc3F)n2)ncc1NC(=O)c1ccccc1OC(F)(F)F [Compound I-211],D (D = 5 to <10 fold increase),E (E = 10 to <20 fold increase),20 to 40,20 to 40,20 to 40,40 to 60
Nc1nc(-c2cc(-c3ccon3)n(Cc3ccccc3F)n2)ncc1NC(=O)C12CC3CC(CC(C3)C1)C2 [Compound I-233],E (E = 10 to <20 fold increase),F (F = 20 to <30 fold increase),< 20,80 to 100,80 to 100,80 to 100
Nc1nc(-c2cc(-c3ccon3)n(Cc3ccccc3F)n2)ncc1NC(=O)c1cccc(Cl)c1 [Compound I-187],D (D = 5 to <10 fold increase),F (F = 20 to <30 fold increase),< 20,40 to 60,60 to 80,60 to 80
Nc1nc(-c2cc(-c3ccon3)n(Cc3ccccc3F)n2)ncc1NC(=O)c1cccc(O)n1 [Compound I-193],E (E = 10 to <20 fold increase),E (E = 10 to <20 fold increase),< 20,10 to 20,40 to 60,60 to 80
CC(C)(C)C(=O)Nc1cnc(-c2cc(-c3ncco3)n(Cc3ccccc3F)n2)nc1N [Compound I-191],C (C = 2 to <5 fold increase),E (E = 10 to <20 fold increase),< 20,20 to 40,40 to 60,80 to 100
C/C=C(\C)C(=O)Nc1cnc(-c2cc(-c3ccon3)n(Cc3ccccc3F)n2)nc1N [Compound I-227],F (F = 20 to <30 fold increase),F (F = 20 to <30 fold increase),< 20,40 to 60,60 to 80,60 to 80
Fc1cccc(F)c1Cn1nc(-c2ncccn2)cc1-c1ccon1 [Compound I-199],C (C = 2 to <5 fold increase),E (E = 10 to <20 fold increase),20 to 40,10 to 20,20 to 40,40 to 60
Cc1nc(-c2cc(-c3ccon3)n(Cc3ccccc3F)n2)nc(O)c1F [Compound I-203],B (B = 1 to <2 fold increase),D (D = 5 to <10 fold increase),60 to 100,0 to 10,10 to 20,20 to 40
Oc1cc(-c2cccnc2)nc(-c2cc(-c3ccon3)n(Cc3ccccc3F)n2)n1 [Compound I-300],B (B = 1 to <2 fold increase),B (B = 1 to <2 fold increase),,,,
Fc1ccccc1Cn1nc(-c2ccccn2)cc1N1CCC1 [Compound I-287],B (B = 1 to <2 fold increase),C (C = 2 to <5 fold increase),,,0 to 10,0 to 10
Nc1nc(-c2cc(-c3ccon3)n(Cc3ccccc3F)n2)ncc1NC(=O)[C@@H]1CCCN1C(=O)C(F)(F)F [Compound I-219],D (D = 5 to <10 fold increase),E (E = 10 to <20 fold increase),< 20,20 to 40,60 to 80,60 to 80
N#Cc1cc(-c2ncccn2)nn1Cc1ccccc1F [Compound I-293],C (C = 2 to <5 fold increase),C (C = 2 to <5 fold increase),40 to 60,,20 to 40,20 to 40
c1cnc(-c2cc(-c3ccon3)n(Cc3cnccn3)n2)nc1 [Compound I-221],B (B = 1 to <2 fold increase),C (C = 2 to <5 fold increase),,0 to 10,0 to 10,10 to 20
Nc1cnc(-c2cc(-c3ncco3)n(Cc3ccccc3F)n2)nc1N [Compound I-149],C (C = 2 to <5 fold increase),D (D = 5 to <10 fold increase),20 to 40,,60 to 80,80 to 100
